# Reference: patent US12174192B2, “Methods for detecting and treating cancers having adenosine pathway activation” (Corvus Pharmaceuticals, Inc., priority 2018, dated 2024)
# “Also recorded” adds a separate entry of the source.
# Experiments:
# Type in all cases: cell-based
# [1] = system: human peripheral blood mononuclear cells (PBMCs); experiment: RNA sequencing (RNA-Seq) of NECA-treated, anti-CD3/CD28-activated PBMCs
# Method: RNA purified from normal, healthy human peripheral blood mononuclear cells (PBMCs) treated with 5′-N-ethylcarboxamidoadenosine (NECA) and activated with anti-CD3/CD28 antibody were analyzed by NanoString hybridization-based quantification (NanoString Technologies, Inc.). […] Each dot represents the expression level of a specific gene. Dot shade represents the concentration of NECA used and/or different PBMC donors. […] Data were confirmed by RNA sequencing (RNA-Seq).
# PBMCs = experiment: CXCL5 protein ELISA in culture supernatants of PBMCs treated with NECA +/- CPI-444; settings: PBMCs from two human donors; two days after anti-CD3/CD28 activation; DMSO vehicle control
# Method: Expression of CXCL5 was determined by ELISA 2 days after activation.
# FIGS. 2B and 2C show the response of PBMCs from two different donors to NECA+/−CPI-444 treatment. DMSO was used as vehicle control. […] This control helps establish that the induction of CXCL5 is specific to signaling through adenosine receptors.
# NECA activation of CXCL5 protein expression was evaluated. PBMCs were harvested from two different human donors. […] CPI-444 (Corvus Pharmaceuticals) is an antagonist of the adenosine A2A receptor. CXCL5 protein in the culture supernatants was evaluated by ELISA two days after activation. CXCL5 expression is activated by NECA. […] This establishes that the induction of CXCL5 is specific to signaling through adenosine receptors.
# [2] = system: human peripheral blood mononuclear cells (PBMCs); experiment: NanoString mRNA quantification in NECA-treated, anti-CD3/CD28-activated PBMCs; settings: 0.1 μM, 1 μM, and/or 10 μM NECA vs vehicle-treated control
# Method: RNA purified from normal, healthy human peripheral blood mononuclear cells (PBMCs) treated with 5′-N-ethylcarboxamidoadenosine (NECA) and activated with anti-CD3/CD28 antibody were analyzed by NanoString hybridization-based quantification (NanoString Technologies, Inc.). […] Each dot represents the expression level of a specific gene. Dot shade represents the concentration of NECA used and/or different PBMC donors.
compound,measurement,setting,value
"CCNC(=O)[C@H]1O[C@@H](n2cnc3c(N)ncnc32)[C@H](O)[C@@H]1O [NECA, 5′-N-ethylcarboxamidoadenosine]",logFC CCL24 expression,[1]; Control (DMSO) vs 0.1 μm NECA,−1.068
same,logFC CD93 expression,[1]; Control (DMSO) vs 0.1 μm NECA,0.9975
same,logFC CSF3 expression,[1]; Control (DMSO) vs 0.1 μm NECA,1.603
same,logFC CXCL2 expression,[1]; Control (DMSO) vs 0.1 μm NECA,1.452
same,logFC CXCL3 expression,[1]; Control (DMSO) vs 0.1 μm NECA,1.694
same,logFC CXCL5 expression,[1]; Control (DMSO) vs 0.1 μm NECA,2.388
same,logFC EHF expression,[1]; Control (DMSO) vs 0.1 μm NECA,−0.2753
same,logFC EML6 expression,[1]; Control (DMSO) vs 0.1 μm NECA,0.2117
same,logFC EPB41L3 expression,[1]; Control (DMSO) vs 0.1 μm NECA,1.183
same,logFC FUT7 expression,[1]; Control (DMSO) vs 0.1 μm NECA,−0.2135
same,logFC HAS1 expression,[1]; Control (DMSO) vs 0.1 μm NECA,2.059
same,logFC IL23A expression,[1]; Control (DMSO) vs 0.1 μm NECA,0.7971
same,logFC INHBA expression,[1]; Control (DMSO) vs 0.1 μm NECA,0.5196
same,logFC KLC4 expression,[1]; Control (DMSO) vs 0.1 μm NECA,0.216
same,logFC LAYN expression,[1]; Control (DMSO) vs 0.1 μm NECA,0.4228
same,logFC MRPL11 expression,[1]; Control (DMSO) vs 0.1 μm NECA,−0.19
same,logFC MS4A7 expression,[1]; Control (DMSO) vs 0.1 μm NECA,0.9319
same,logFC NPR1 expression,[1]; Control (DMSO) vs 0.1 μm NECA,0.7892
same,logFC OST4 expression,[1]; Control (DMSO) vs 0.1 μm NECA,−0.2352
same,logFC PADI2 expression,[1]; Control (DMSO) vs 0.1 μm NECA,0.4802
same,logFC PTGS2 expression,[1]; Control (DMSO) vs 0.1 μm NECA,1.184
same,logFC SLC7A7 expression,[1]; Control (DMSO) vs 0.1 μm NECA,0.5935
same,logFC SPON1 expression,[1]; Control (DMSO) vs 0.1 μm NECA,0.3611
same,logFC ST6GALNAC2 expression,[1]; Control (DMSO) vs 0.1 μm NECA,0.5342
same,logFC SYTL3 expression,[1]; Control (DMSO) vs 0.1 μm NECA,0.2894
same,logFC WDR83OS expression,[1]; Control (DMSO) vs 0.1 μm NECA,−0.2872
same,logFC ZBTB18 expression,[1]; Control (DMSO) vs 0.1 μm NECA,0.2431
same,logFC CCDC60 expression,[1]; Control (DMSO) vs 1 μm NECA,0.07658
same,logFC CD93 expression,[1]; Control (DMSO) vs 1 μm NECA,1.454
same,logFC CSF3 expression,[1]; Control (DMSO) vs 1 μm NECA,2.802
same,logFC CXCL2 expression,[1]; Control (DMSO) vs 1 μm NECA,2.361
same,logFC CXCL3 expression,[1]; Control (DMSO) vs 1 μm NECA,2.573
same,logFC CXCL5 expression,[1]; Control (DMSO) vs 1 μm NECA,3.451
same,logFC EHF expression,[1]; Control (DMSO) vs 1 μm NECA,−0.2522
same,logFC EMR3 expression,[1]; Control (DMSO) vs 1 μm NECA,1.364
same,logFC EPB41L3 expression,[1]; Control (DMSO) vs 1 μm NECA,1.854
same,logFC EREG expression,[1]; Control (DMSO) vs 1 μm NECA,1.89
same,logFC FUT7 expression,[1]; Control (DMSO) vs 1 μm NECA,−0.4158
same,logFC GPR157 expression,[1]; Control (DMSO) vs 1 μm NECA,0.9283
same,logFC HAS1 expression,[1]; Control (DMSO) vs 1 μm NECA,3.238
same,logFC IL23A expression,[1]; Control (DMSO) vs 1 μm NECA,1.363
same,logFC IL24 expression,[1]; Control (DMSO) vs 1 μm NECA,2.876
same,logFC INHBA expression,[1]; Control (DMSO) vs 1 μm NECA,0.9638
same,logFC LAYN expression,[1]; Control (DMSO) vs 1 μm NECA,0.5277
same,logFC MS4A7 expression,[1]; Control (DMSO) vs 1 μm NECA,1.535
same,logFC OST4 expression,[1]; Control (DMSO) vs 1 μm NECA,−0.1747
same,logFC PADI2 expression,[1]; Control (DMSO) vs 1 μm NECA,0.7173
same,logFC PID1 expression,[1]; Control (DMSO) vs 1 μm NECA,1.729
same,logFC PTGS2 expression,[1]; Control (DMSO) vs 1 μm NECA,2.23
same,logFC SLC7A7 expression,[1]; Control (DMSO) vs 1 μm NECA,0.9514
same,logFC SPON1 expression,[1]; Control (DMSO) vs 1 μm NECA,0.5667
same,logFC ST6GALNAC2 expression,[1]; Control (DMSO) vs 1 μm NECA,0.8306
same,logFC TGIF1 expression,[1]; Control (DMSO) vs 1 μm NECA,0.4769
same,logFC ZBTB18 expression,[1]; Control (DMSO) vs 1 μm NECA,0.3385
same,logFC CCNE1 expression,[1]; Control (DMSO) vs 10 μm NECA,−0.4518
same,logFC CD93 expression,[1]; Control (DMSO) vs 10 μm NECA,1.895
same,logFC CD300E expression,[1]; Control (DMSO) vs 10 μm NECA,1.71
same,logFC CSF3 expression,[1]; Control (DMSO) vs 10 μm NECA,3.508
same,logFC CXCL2 expression,[1]; Control (DMSO) vs 10 μm NECA,3.011
same,logFC CXCL3 expression,[1]; Control (DMSO) vs 10 μm NECA,3.106
same,logFC CXCL5 expression,[1]; Control (DMSO) vs 10 μm NECA,3.354
same,logFC DFNA5 expression,[1]; Control (DMSO) vs 10 μm NECA,0.6559
same,logFC ECEL1 expression,[1]; Control (DMSO) vs 10 μm NECA,0.6918
same,logFC EPB41L3 expression,[1]; Control (DMSO) vs 10 μm NECA,2
same,logFC GALM expression,[1]; Control (DMSO) vs 10 μm NECA,−0.3189
same,logFC GBP6 expression,[1]; Control (DMSO) vs 10 μm NECA,−0.8039
same,logFC GPR157 expression,[1]; Control (DMSO) vs 10 μm NECA,1.139
same,logFC HAS1 expression,[1]; Control (DMSO) vs 10 μm NECA,3.807
same,logFC IL5 expression,[1]; Control (DMSO) vs 10 μm NECA,−0.6885
same,logFC IL23A expression,[1]; Control (DMSO) vs 10 μm NECA,1.332
same,logFC INHBA expression,[1]; Control (DMSO) vs 10 μm NECA,1.192
same,logFC LAP3 expression,[1]; Control (DMSO) vs 10 μm NECA,−0.4286
same,logFC LOC100505585 expression,[1]; Control (DMSO) vs 10 μm NECA,0.6639
same,logFC NID1 expression,[1]; Control (DMSO) vs 10 μm NECA,1.087
same,logFC PADI2 expression,[1]; Control (DMSO) vs 10 μm NECA,0.9386
same,logFC PID1 expression,[1]; Control (DMSO) vs 10 μm NECA,2.124
same,logFC PTGS2 expression,[1]; Control (DMSO) vs 10 μm NECA,2.349
same,logFC RHCG expression,[1]; Control (DMSO) vs 10 μm NECA,0.5767
same,logFC SLC7A7 expression,[1]; Control (DMSO) vs 10 μm NECA,0.9134
same,logFC SPON1 expression,[1]; Control (DMSO) vs 10 μm NECA,0.568
same,logFC ST6GALNAC2 expression,[1]; Control (DMSO) vs 10 μm NECA,0.876
same,"CXCL5 protein in culture supernatants (ELISA), effect of NECA",PBMCs,activated; also recorded: dose-dependent increase in CXCL5
same,logFC CD14 expression,[2],0.4485
same,logFC CD86 expression,[2],0.3148
same,logFC CLEC5A expression,[2],0.3833
same,logFC CXCL1 expression,[2],0.6909
same,logFC CXCL2 expression,[2],1.093
same,logFC CXCL3 expression,[2],1.101
same,logFC CXCL5 expression,[2],1.338
same,logFC CXCL6 expression,[2],0.6535
same,logFC IL1A expression,[2],0.6367
same,logFC IL1B expression,[2],0.6345
same,logFC IL6 expression,[2],0.7014
same,logFC IL8 expression,[2],0.6411
same,logFC IL23A expression,[2],0.4628
same,logFC IL24 expression,[2],0.5768
same,logFC PLAUR expression,[2],0.5031
same,logFC PPBP expression,[2],0.683
same,logFC PTGS2 expression,[2],0.6892
same,logFC SLC11A1 expression,[2],0.7022
same,logFC TBX21 expression,[2],−0.1238
same,logFC THBS1 expression,[2],0.8703
